Consider 18 compounds from patent publication US9884063B2, “Amido-substituted azole compounds” (Bayer Pharma Aktiengesellschaft, priority 2014, dated 2018).

Each structure is given as a SMILES string. pIC50: −log10 of the molar value. Where only a bound is given, the exact number is not on record here.

The pIC50 is the IC50 on a negative log10 scale, so that one unit is a factor of ten. Higher therefore signals a low IC50.

Assay [1] deals with T1, TNKS1 (Homo sapiens, UniProt O95271).
T1 sequence (O95271 1-1327): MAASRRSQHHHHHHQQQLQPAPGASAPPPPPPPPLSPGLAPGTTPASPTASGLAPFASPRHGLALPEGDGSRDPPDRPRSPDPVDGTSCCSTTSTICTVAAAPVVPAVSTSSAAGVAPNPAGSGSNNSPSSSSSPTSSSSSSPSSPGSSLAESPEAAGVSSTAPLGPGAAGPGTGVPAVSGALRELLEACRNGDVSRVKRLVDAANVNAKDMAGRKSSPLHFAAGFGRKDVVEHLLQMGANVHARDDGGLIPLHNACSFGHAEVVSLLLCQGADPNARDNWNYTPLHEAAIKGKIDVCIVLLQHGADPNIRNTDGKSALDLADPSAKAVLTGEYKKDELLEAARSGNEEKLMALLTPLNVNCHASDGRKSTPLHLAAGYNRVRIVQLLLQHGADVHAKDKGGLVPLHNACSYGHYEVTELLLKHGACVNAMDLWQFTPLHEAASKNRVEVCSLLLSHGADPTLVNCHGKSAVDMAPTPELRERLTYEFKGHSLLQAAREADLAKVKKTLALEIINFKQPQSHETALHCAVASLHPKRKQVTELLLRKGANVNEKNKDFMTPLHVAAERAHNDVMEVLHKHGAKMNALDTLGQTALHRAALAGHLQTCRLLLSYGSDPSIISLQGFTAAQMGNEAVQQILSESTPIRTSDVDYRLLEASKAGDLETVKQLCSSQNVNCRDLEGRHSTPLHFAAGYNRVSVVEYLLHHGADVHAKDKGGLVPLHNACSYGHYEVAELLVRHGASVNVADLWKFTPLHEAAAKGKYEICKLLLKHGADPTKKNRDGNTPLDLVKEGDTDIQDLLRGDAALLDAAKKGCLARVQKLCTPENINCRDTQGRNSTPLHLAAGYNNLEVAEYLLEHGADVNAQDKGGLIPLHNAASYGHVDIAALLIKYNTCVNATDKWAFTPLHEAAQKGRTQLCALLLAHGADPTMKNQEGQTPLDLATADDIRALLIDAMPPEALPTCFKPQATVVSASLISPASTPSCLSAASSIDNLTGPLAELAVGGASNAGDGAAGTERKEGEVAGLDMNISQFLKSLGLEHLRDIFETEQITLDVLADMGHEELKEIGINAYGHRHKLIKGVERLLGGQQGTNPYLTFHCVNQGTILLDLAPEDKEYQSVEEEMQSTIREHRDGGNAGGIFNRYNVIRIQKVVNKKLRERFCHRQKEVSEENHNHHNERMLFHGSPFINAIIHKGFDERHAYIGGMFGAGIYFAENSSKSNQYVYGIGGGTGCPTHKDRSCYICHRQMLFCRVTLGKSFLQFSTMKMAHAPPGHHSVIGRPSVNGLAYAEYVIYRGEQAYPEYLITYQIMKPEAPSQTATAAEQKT
As to the kind of experiment: Modified TNKS1 Assay 2 (auto-parsylation, [3H]-NAD+ SPA). The format is biochemical. The following applies: 6 nM TNKS1, 96 well. Here is the method:
The potency of selected compounds according to the invention was assessed applying an modified in vitro inhibition assay. Here, the TNKS1 catalyzed NAD^+-dependent ribosylation of the enzyme itself (auto-parsylation) was detected using [^3H]-NAD^+ as substrate and applying the scintillation proximity assay (SPA) method to detect tritium-labeled, parsylated TNKS1. The intensity of the readout signal is proportional to the incorporated [^3H]-NAD^+. Inhibition of TNKS1 leads to a decreased incorporation of [^3H]-NAD^+ and consequently to a lower readout signal intensity. The concentration of a test compound which inhibits the enzyme activity by 50% (corresponds to half of the normed readout signal intensity) is reported as IC50.
The assay was conducted in a 96 well MTP format with the identical TNKS1 enzyme sample and NAD^+ sample as in the histone ribosylation assay with the following modifications: TNKS1 enzyme sample was diluted with a modified assay buffer (50 mM MES pH 7.0, 1 mM DTT, 0.01% Triton X-100) to a final concentration of 6 nM TNKS1 and 10×NAD^+ solution was diluted with the modified assay buffer (s. above) to a final 0.445×NAD^+ solution doped with 100 Bq/ul [^3H]-NAD^+[Catalog #NET443H050UC, Perkin Elmer, Waltham, Mass., USA]. Substrate solution (10 ul) was incubated with different test compound concentrations (2.5 ul in 10% DMSO in modified assay buffer) or control (2.5 ul 10% DMSO in modified assay buffer only) and enzyme (10 ul) over night at room temperature. Incorporated tritium was measured after addition of 50 ul SPA beads (1 mg/ml) [Catalog #RPNQ0095 20 mg/ml, Perkin Elmer, Waltham, Mass., USA; diluted 1:10 with Dulbecco's phosphate buffered saline, PBS Catalog #D8537, Sigma-Aldrich, Steinheim, Germany] and detection of the photon emission with a beta count plate reader [Wallac MicroBeta®, Perkin Elmer, Waltham, Mass., USA].

Assay [2] has as its system wildtype Wnt signaling cascade. As to the kind of experiment: HEK293 TOP Assay (Super TopFlash luciferase reporter, Wnt-3a stimulated). The conditions noted are these: Homo sapiens, HEK293, 16 h. It is filed as cell-based. The method, boiled down: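 Compounds (50 μM down to 15 nM, 3.16-fold steps, in CAFTY buffer pH 7.4, 2 mM Ca2+, 0.01% BSA) tested in parallel on TOP and FOP HEK293 reporter lines to define selective wildtype Wnt inhibition. Pathway driven by recombinant human Wnt-3a applied at 2500–5 ng/ml in two-fold dilutions.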
(In general: A reporter such as luciferase makes a cellular process visible.)

The mark [3] stands for this setting: HEK293 TOP reporter cell line, Wnt-3a at EC50, 16 hours incubation, compound dilution series 50 μM to 15 nM.
The mark [4] stands for this setting: HEK293 TOP reporter cells, Wnt3a at EC50, 16 hours, luciferase.

On to `CNC(=O)c1nc[nH]c1C(=O)Nc1ccc(NC(=O)c2ccc(F)cc2)cc1` [Example 20, N^5-{4-[(4-fluorobenzoyl)amino]phenyl}-N^4-methyl-1H-imidazole-4,5-dicarboxamide], for which the results for the pIC50 in assay [1], in assay [2] (setting [3]) and in assay [2] (setting [4]) were under 5.00, 4.95 and 5.47, respectively.
On the same counts, the results for `CN(C)C(=O)c1nc[nH]c1C(=O)Nc1ccc(NC(=O)c2ccc(F)cc2Cl)cc1` [Example 24, N^5-{4-[(2-chloro-4-fluorobenzoyl)amino]phenyl}-N^4,N^4-dimethyl-1H-imidazole-4,5-dicarboxamide] are 5.59, 5.67 and 5.69.
In the case of `CNC(=O)c1nc[nH]c1C(=O)Nc1ccc(NC(=O)c2ccc(OCCN(C)C)cc2Cl)cc1` [Example 25, N^5-[4-({2-chloro-4-[2-(dimethylamino)ethoxy]benzoyl}amino)phenyl]-N^4-methyl-1H-imidazole-4,5-dicarboxamide], the pIC50 in assay [1] was 7.10; in assay [2] (setting [3]), 6.14; in assay [2] (setting [4]), 6.14.
For the compound `CNC(=O)c1nc[nH]c1C(=O)Nc1ccc(NC(=O)c2c(Cl)cccc2Cl)cc1` [Example 26, N^5-{4-[(2,6-dichlorobenzoyl)amino]phenyl}-N^4-methyl-1H-imidazole-4,5-dicarboxamide], the pIC50 in assay [1] was 5.77; in assay [2] (setting [3]), 5.87; in assay [2] (setting [4]), 6.10.
For `CNC(=O)c1nc[nH]c1C(=O)Nc1ccc(NC(=O)c2ccccc2Cl)cc1` [Example 27, N^5-{4-[(2-chlorobenzoyl)amino]phenyl}-N^4-methyl-1H-imidazole-4,5-dicarboxamide] the same measures were 6.20, 6.41 and 6.47.
For `CNC(=O)c1nc[nH]c1C(=O)Nc1ccc(NC(=O)c2ccc(OCCN3CCN(C)CC3)cc2Cl)cc1` [Example 28, N^5-[4-({2-chloro-4-[2-(4-methylpiperazin-1-yl)ethoxy]benzoyl}amino)phenyl]-N^4-methyl-1H-imidazole-4,5-dicarboxamide] the same measures were 7.22, 6.28 and 6.17.
For `O=C(Nc1ccc(NC(=O)c2[nH]cnc2C(=O)NCC(F)(F)F)cc1)c1ccc(F)cc1Cl` [Example 30, N^4-{4-[(2-chloro-4-fluorobenzoyl)amino]phenyl}-N^5-(2,2,2-trifluoroethyl)-1H-imidazole-4,5-dicarboxamide] the same measures were 7.30, 6.72 and 6.80.
On to `CNC(=O)c1nc[nH]c1C(=O)Nc1ccc(NC(=O)c2c(F)cc(F)cc2Cl)cc1` [Example 118, N^5-{4-[(2-chloro-4,6-difluorobenzoyl)amino]phenyl}-N^4-methyl-1H-imidazole-4,5-dicarboxamide], for which the figures for the pIC50 in assay [1] and in assay [2] (setting [3]) were 7.10 and 6.21, respectively.
For `O=C(NCCN1CCCCC1)c1nc[nH]c1C(=O)Nc1ccc(NC(=O)c2c(F)cc(F)cc2Cl)cc1` [Example 119, N^5-{4-[(2-chloro-4,6-difluorobenzoyl)amino]phenyl}-N^4-[2-(piperidin-1-yl)ethyl]-1H-imidazole-4,5-dicarboxamide] the same measures were 8.70 and 7.15.
On the same counts, the results for `NC(=O)c1nc[nH]c1C(=O)Nc1ccc(NC(=O)c2ccc(F)cc2Cl)cc1` [Example 121] are 7.40 and 6.57.
On the same counts, the results for `CNC(=O)c1nc[nH]c1C(=O)Nc1ccc(NC(=O)c2ccc(O)cc2Cl)cc1` [Example 122, N^5-{4-[(2-chloro-4-hydroxybenzoyl)amino]phenyl}-N^4-methyl-1H-imidazole-4,5-dicarboxamide] are 6.02 and 6.55.
As for `CNC(=O)c1nc[nH]c1C(=O)Nc1ccc(NC(=O)c2cc(OCCN3CCN(C)CC3)ccc2Cl)cc1` [Example 124, N^5-[4-({2-chloro-5-[2-(4-methylpiperazin-1-yl)ethoxy]benzoyl}amino)phenyl]-N^4-methyl-1H-imidazole-4,5-dicarboxamide], the results for the pIC50 in assay [1] and in assay [2] (setting [3]) were under 5.00 and 4.30, respectively.
On the same counts, the results for `CNC(=O)c1nc[nH]c1C(=O)Nc1ccc(NC(=O)c2cc(OCCN3CCCCC3)ccc2Cl)cc1` [Example 125, N^5-[4-({2-chloro-5-[2-(piperidin-1-yl)ethoxy]benzoyl}amino)phenyl]-N^4-methyl-1H-imidazole-4,5-dicarboxamide] are under 5.00 and 5.39.
For `CC1CCN(CCNC(=O)c2nc[nH]c2C(=O)Nc2ccc(NC(=O)c3ccc(F)cc3Cl)cc2)CC1` [Example 126, N^5-{4-[(2-chloro-4-fluorobenzoyl)amino]phenyl}-N^4-[2-(4-methylpiperidin-1-yl)ethyl]-1H-imidazole-4,5-dicarboxamide], the figures for the pIC50 in assay [1] and in assay [2] (setting [3]) were 8.00 and 7.40, respectively.
For `COCCNC(=O)c1[nH]cnc1C(=O)Nc1ccc(NC(=O)c2ccc(F)cc2Cl)cc1` [Example 130, N^4-{4-[(2-chloro-4-fluorobenzoyl)amino]phenyl}-N^5-(2-methoxyethyl)-1H-imidazole-4,5-dicarboxamide] the same measures were 7.52 and 6.60.
As for `O=C(Nc1ccc(NC(=O)c2nc[nH]c2C(=O)NC2CC2)cc1)c1ccc(F)cc1` [Example 131, N^5-cyclopropyl-N^4-{4-[(4-fluorobenzoyl)amino]phenyl}-1H-imidazole-4,5-dicarboxamide], the results for the pIC50 in assay [1] and in assay [2] (setting [3]) were under 5.00 and 5.04, respectively.
On to `CC(C)CNC(=O)c1[nH]cnc1C(=O)Nc1ccc(NC(=O)c2ccc(F)cc2Cl)cc1` [Example 147, N^4-{4-[(2-chloro-4-fluorobenzoyl)amino]phenyl}-N^5-isobutyl-1H-imidazole-4,5-dicarboxamide], for which the pIC50 in assay [1] was 6.96; in assay [2] (setting [3]), 6.49.
For `CC(C)(C)CNC(=O)c1[nH]cnc1C(=O)Nc1ccc(NC(=O)c2ccccc2Cl)cc1` [Example 148, N^4-{4-[(2-chlorobenzoyl)amino]phenyl}-N^5-(2,2-dimethylpropyl)-1H-imidazole-4,5-dicarboxamide], the pIC50 in assay [1] is 5.89; in assay [2] (setting [3]), 5.76.
